# Measurements published in patent US20230127965A1, “METHODS FOR TREATING, AMELIORATING, OR PREVENTING VIRAL INFECTIONS” (Thomas Jefferson University, priority 2020, published 2023).
# Entries after “also recorded” stand apart in the source; their conditions may differ.
# Tests used:
# Type in all cases: cell-based
# SARS-CoV-2 = test system: SARS-CoV-2
# androgen receptor (AR) = test system: androgen receptor (AR)
# Powassan virus = test system: Powassan virus
# Zika virus = Zika virus infection of U2OS cells, qPCR; settings: 10 μM, treated 2 hours before infection, MOI of 1, ~16-18 hours (FIG. 7)
# Dengue virus = Dengue virus infection of U2OS cells, qPCR; settings: 10 μM, treated 2 hours before infection, MOI of 1, ~16-18 hours (FIG. 6)
SMILES,effect on SARS-CoV-2 infection (in words) (SARS-CoV-2),DHT induced AR transcriptional activity (androgen receptor (AR)),blocked SARS-CoV-2 infection (fold) (SARS-CoV-2),"Powassan virus infection (fold change, qPCR) (Powassan virus)","Zika virus infection (fold change, qPCR) (Zika virus)","Dengue virus infection (fold change, qPCR) (Dengue virus)"
"Cc1cc(OCCN2CCOCC2)nn1-c1ccc2ccccc2c1 [Compound S1RA, 4-[2-[[5-methyl-1-(2-naphthalenyl)-1H-pyrazol-3-yl]oxy]ethyl]morpholine]",did not block infection; also recorded: does not block infection,,,,,
"O=C(OCCN1CCOCC1)C1(c2ccccc2)CCCCC1 [PRE084, 2-morpholin-4-ylethyl 1-phenylcyclohexane-1-carboxylate]",did not block infection,,,,,
"O=C(CCCN1CCC(O)(c2ccc(Cl)cc2)CC1)c1ccc(F)cc1 [Haloperidol, 4-[4-(4-chlorophenyl)-4-hydroxypiperidin-1-yl]-1-(4-fluorophenyl)butan-1-one]",clear but modest antiviral effect,,,,,
N=C(NCCCOc1ccc(F)cc1)Nc1ccc(Cl)cc1 [CT189],inhibit SARS-CoV-2 infection,inhibition,"1,000 fold",inhibit,inhibit,inhibit
N=C(Nc1ccc(I)cc1)NC1C2CC3CC(C2)CC1C3 (stereo not shown) [IPAG],inhibit SARS-CoV-2 infection,inhibition,"1,000 fold",,,
"COc1ccc(CCN2CCN(CCCc3ccccc3)CC2)cc1OC [SA4503, 1-(3,4-dimethoxyphenethyl)-4-(3-phenylpropyl) piperazine]",did not block infection,,,,,
